Assay results published in patent US11793741B2, “Topical composition” (Conopco, Inc., priority 2017, dated 2023).

Tested on: psoriasin
Experiment: Generation of psoriasin (AMP marker) by human keratinocytes, ELISA of cell culture supernatant
Assay type: cell-based
Conditions: NHEK cells, 72 hours; for Fold change in psoriasin levels over control: control (Example A) = 1
Method: The experiment was done with the above-mentioned cells with passage between 3 and 4. The cells were seeded (35,000 cells/well) in 24 well plate with keratinocyte growth media (KGM) obtained from Invitrogen®. The plate was then incubated at 37±2° C. in a CO2 incubator for 48 hours. Step 2: After 48 hours of incubation, cell differentiation was induced by replacing media with fresh KGM supplemented with 2 mM calcium chloride solution. This was then followed by incubation at 37±2° C. in a CO2 incubator for 48 hours. Step 3: After that, the cells were treated with niacinamide and the compound of formula I, i.e. N-cyclopropyl nicotinamide, in varying concentration as outlined in table 1 below with keratinocyte growth media supplemented with 2 mM calcium chloride solution. Step 4: After the above treatment, cells were again incubated at 37±2° C. in a CO2 incubator for 72 hours. Step 5: After 72 hours of incubation, cell culture supernatant from each well was collected in a sterile tube. The samples were then stored at −80° C. until used for testing psoriasin secretion by standard ELISA technique using psoriasin ELISA kit obtained from Circulx® (No: CY-8073). In the current experiment, psoriasin was used as a marker for AMP. Step 6: The ELISA method was performed by using 100 μL of cell culture supernatant from each sample. The data is expressed in terms of fold change over control (no treatment: Example A). The fold change in psoriasin levels in case of control (example A) is taken to be equal to 1 fold. Any fold change in psoriasin obtained due to treatments outlined in all the other examples was over and above the 1 fold change obtained from the control.

SMILES | Fold change in psoriasin levels over control (100 μg/mL active) [fold] | Fold change in psoriasin levels over control (250 μg/mL active) [fold] | Fold change in psoriasin levels over control (500 μg/mL active) [fold] | Fold change in psoriasin over and above 1 fold of the control (100 μg/mL active) [fold]
O=C(NC1CC1)c1cccnc1 [Example 1, N-cyclopropyl nicotinamide] | 1.61 | 1.88 | 2.16 | –
NC(=O)c1cccnc1 [Example B, Niacinamide] | 1.26 | 1.50 | 1.44 | 0.26
